Bridge positions count the residues as written; N and C are the ends. Peptide text beside a SMILES is read from it. * marks the point of attachment. Biotin = O=C1N[C@H]2[C@H](CS[C@H]2CCCCC(=O)*)N1; Dansyl = CN(C)c1cccc2c(S(=O)(=O)*)cccc12; Propargyl = C#CC*

We go through seven molecules from paper PMC9826346, “One‐Pot Chemoenzymatic Synthesis of Microviridin Analogs Containing Functional Tags” (Chembiochem, 2022).

One data set has as its system Daphnia. The following applies: microcrustaceans of the genus Daphnia; cited from earlier work. An excerpt: While the bioactivity and mode of action against mammalian serine proteases is well investigated for microviridins[[2a], [8]] and plesiocin,[9] their ecological roles and native targets remain elusive. […] However, neither specific protease targets could be identified, nor could a mode of action be specified. One hypothesis is based on the depletion of the amino acid pool essential for ...

For a further data set, the target named is trypsin. The following applies: read-out: KD for the interaction of trypsin and microviridin J; cited from earlier work. An excerpt:
Naturally, microviridins act as competitive inhibitors that bind tightly to their corresponding proteases in a substrate‐like manner, for which turnover is excluded. […] Therefore, the chemical probes that show protease inhibition in the range of the unmodified microviridin derivatives could be expected to work as molecular tools. However, since the activity of dansylated microviridin B is clearly compromised (Table 1), the compound's affinity for elastase might not be strong enough for diagnos ...

Data set [1] has as its target porcine pancreas elastase (Sus scrofa, UniProt P00772). Kind of data set: biochemical. As to the method:
(§1) Protease inhibition assay: Microviridins were checked for their inhibitory activity against trypsin and elastase. Therefore, microviridin concentrations of 0.01 μM, 0.1 μM, 1 μM, 10 μM and 100 μM were tested. A sample without microviridin was used as control. As substrates N α‐Benzoyl‐DL‐arginine 4‐nitroanilide hydrochloride (BAPNA) was used for the trypsin assay and N‐Succinyl‐Ala‐Ala‐Ala‐p‐nitroanilide (Suc‐AAA‐pNA) for the elastase assays. The trypsin assay was performed with 16.7 μg/mL (approximately 42.7 U/mL) bovine trypsin (Carl Roth (Germany)) and 108.5 μg/mL BAPNA (Sigma‐Aldrich (Germany)) in 50 mM Tris‐HCl, 20 mM CaCl2, 0.5 % DMSO, pH 7.5. The elastase assay was performed with 50 μg/mL (250 mU/mL) porcine pancreas elastase (Sigma‐Aldrich (Germany) and 500 μg/mL Suc‐AAA‐pNA (Sigma‐Aldrich (Germany)) in 50 mM Tris‐HCl, 20 mM CaCl2, pH 7.5. All microviridins were dissolved in water to a concentration of 500 μM except of tricyclic MvB_CP_N(dansyl), which was dissolved in water containing 10 % DMSO. Before adding the substrate, each enzyme was incubated for 5 min with the respective inhibitor at room temperature. Afterwards, the substrate was added, and the assays were incubated for 15 min (elastase assay) and 30 min (trypsin assay) at 37 °C. The enzymatic activity was measured spectrophotometrically (Varioscan Flash, Thermo Scientific) at 410 nm. The assays were done twice for each sample. IC50 values were calculated using the Quest Graph™ IC50 Calculator.[21]

Another data set concerns the target bovine trypsin (Bos taurus, UniProt P00760). Kind of data set: biochemical. As to the method:
as §1

Chain of bovine trypsin (P00760 24-246): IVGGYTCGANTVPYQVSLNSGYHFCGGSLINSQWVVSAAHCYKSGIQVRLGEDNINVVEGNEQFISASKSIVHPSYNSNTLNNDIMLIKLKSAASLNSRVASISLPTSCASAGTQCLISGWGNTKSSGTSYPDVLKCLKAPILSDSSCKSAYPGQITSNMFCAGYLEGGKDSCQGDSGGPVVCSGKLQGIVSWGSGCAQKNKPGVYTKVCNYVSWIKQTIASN
Chain of porcine pancreas elastase (P00772 27-266): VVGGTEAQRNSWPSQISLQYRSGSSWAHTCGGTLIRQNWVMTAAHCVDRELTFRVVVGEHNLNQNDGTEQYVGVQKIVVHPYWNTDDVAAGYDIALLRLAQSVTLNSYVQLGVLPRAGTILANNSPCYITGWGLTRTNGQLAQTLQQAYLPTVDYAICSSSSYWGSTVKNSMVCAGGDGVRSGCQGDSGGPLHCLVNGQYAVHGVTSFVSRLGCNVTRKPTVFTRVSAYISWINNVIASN

Regarding microviridin J, the “Effect on Daphnia” value with Daphnia was “lethal molting disruption”. The dissociation constant Kd at trypsin was 680 nM.

Regarding `CC(C)C[C@@H]1NC(=O)[C@@H](NC(=O)[C@@H](NC(=O)CNC(=O)[C@H](Cc2ccccc2)NS(=O)(=O)c2cccc3c(N(C)C)cccc23)[C@@H](C)O)[C@@H](C)OC(=O)C[C@@H]2NC(=O)[C@@H]3COC(=O)CC[C@H](NC(=O)[C@H](Cc4c[nH]c5ccccc45)NC2=O)C(=O)N[C@H](C(=O)N[C@@H](Cc2ccc(O)cc2)C(=O)O)CCC(=O)NCCCC[C@H](NC1=O)C(=O)N[C@@H](Cc1ccc(O)cc1)C(=O)N1CCC[C@H]1C(=O)N3` [MvB_CP_N(Dansyl)cy3 (6)] (Dansyl-FGTTLKYPSDWEEY-OH; ester 4-10, 9-12; lactam 6-13), the midpoint of inhibition in data set [1], the IC50, lay at 28000 ± 7170 nM. On the same count and under the same terms, the result for `CC(C)C[C@@H]1NC(=O)[C@@H](NC(=O)[C@@H](NC(=O)CNC(=O)[C@@H](N)Cc2ccccc2)[C@@H](C)O)[C@@H](C)OC(=O)C[C@@H]2NC(=O)[C@@H]3COC(=O)CC[C@H](NC(=O)[C@H](Cc4c[nH]c5ccccc45)NC2=O)C(=O)N[C@H](C(=O)N[C@@H](Cc2ccc(O)cc2)C(=O)O)CCC(=O)NCCCC[C@H](NC1=O)C(=O)N[C@@H](Cc1ccc(O)cc1)C(=O)N1CCC[C@H]1C(=O)N3` [MvB_CPcy3 (4)] (H-FGTTLKYPSDWEEY-OH; ester 4-10, 9-12; lactam 6-13) reads 330 ± 20 nM. For the molecule `CC[C@H](C)[C@H](N)C(=O)N[C@@H](CO)C(=O)N[C@@H]1C(=O)N[C@@H](CCCNC(=N)N)C(=O)N[C@H]2CCCCNC(=O)CC[C@@H](C(=O)N[C@@H](Cc3c[nH]c4ccccc34)C(=O)O)NC(=O)[C@@H]3CCC(=O)OC[C@H](NC(=O)[C@@H]4CCCN4C(=O)[C@H](Cc4ccc(O)cc4)NC2=O)C(=O)N[C@@H](CC(=O)O[C@@H]1C)C(=O)N[C@@H](Cc1c[nH]c2ccccc12)C(=O)N3` [MvJ_CPcy3 (1)] (H-ISTRKYPSDWEEW-OH; ester 3-9, 8-11; lactam 5-12), the IC50 against bovine trypsin came to 1090 ± 90 nM. On the same count and under the same terms, to `C#CCOc1ccc(C[C@H](N)C(=O)N[C@H](C(=O)N[C@@H](CO)C(=O)N[C@@H]2C(=O)N[C@@H](CCCNC(=N)N)C(=O)N[C@H]3CCCCNC(=O)CC[C@@H](C(=O)N[C@@H](Cc4c[nH]c5ccccc45)C(=O)O)NC(=O)[C@@H]4CCC(=O)OC[C@H](NC(=O)[C@@H]5CCCN5C(=O)[C@H](Cc5ccc(O)cc5)NC3=O)C(=O)N[C@@H](CC(=O)O[C@@H]2C)C(=O)N[C@@H](Cc2c[nH]c3ccccc23)C(=O)N4)[C@@H](C)CC)cc1` [MvJ_CP_N(Prop)cy3 (3)] (H-Y(Propargyl)ISTRKYPSDWEEW-OH; ester 4-10, 9-12; lactam 6-13) belongs 1640 ± 120 nM. For `CC(C)C[C@@H]1NC(=O)[C@@H](NC(=O)[C@@H](NC(=O)CNC(=O)[C@H](Cc2ccccc2)NC(=O)[C@@H](N)CCCCNC(=O)CCCC[C@@H]2SC[C@@H]3NC(=O)N[C@@H]32)[C@@H](C)O)[C@@H](C)OC(=O)C[C@@H]2NC(=O)[C@@H]3COC(=O)CC[C@H](NC(=O)[C@H](Cc4c[nH]c5ccccc45)NC2=O)C(=O)N[C@H](C(=O)N[C@@H](Cc2ccc(O)cc2)C(=O)O)CCC(=O)NCCCC[C@H](NC1=O)C(=O)N[C@@H](Cc1ccc(O)cc1)C(=O)N1CCC[C@H]1C(=O)N3` [MvB_CP_N(Bio)cy3 (5)] (H-K(Biotin)FGTTLKYPSDWEEY-OH; ester 5-11, 10-13; lactam 7-14), the IC50 in data set [1] amounted to 1240 ± 640 nM. With `CC[C@H](C)[C@H](NC(=O)[C@@H](N)CCCCNC(=O)CCCC[C@@H]1SC[C@@H]2NC(=O)N[C@@H]21)C(=O)N[C@@H](CO)C(=O)N[C@@H]1C(=O)N[C@@H](CCCNC(=N)N)C(=O)N[C@H]2CCCCNC(=O)CC[C@@H](C(=O)N[C@@H](Cc3c[nH]c4ccccc34)C(=O)O)NC(=O)[C@@H]3CCC(=O)OC[C@H](NC(=O)[C@@H]4CCCN4C(=O)[C@H](Cc4ccc(O)cc4)NC2=O)C(=O)N[C@@H](CC(=O)O[C@@H]1C)C(=O)N[C@@H](Cc1c[nH]c2ccccc12)C(=O)N3` [MvJ_CP_N(Bio)cy3 (2)] (H-K(Biotin)ISTRKYPSDWEEW-OH; ester 4-10, 9-12; lactam 6-13), the IC50 against bovine trypsin worked out at 3530 ± 300 nM.

By Kd is commonly meant the free concentration of one partner at which half of the binding sites on the other are occupied at equilibrium, for simple one-to-one binding. As usually defined, the IC50 is the point on the concentration scale where inhibition reaches its midpoint. High values mean weaker potency in that assay, low ones greater potency in that assay.
